Assay results as given in publication PMC5681660, “Reduced hepatitis B and D viral entry using clinically applied drugs as novel inhibitors of the bile acid transporter NTCP” (Scientific Reports, 2017).
Structures can show the parent of a compound that is named as a salt. Where two headings read alike, the source gives them in different places. Values belong to the compound of their own block, whether it stands above or below them.

Experiments:
human NTCP [1] = biological target: T1, human NTCP (Homo sapiens, UniProt Q14973); experiment: Screening taurocholate uptake assay (96-well, [14C]taurocholate, 10 µM drug)
T1 sequence (Q14973 1-349): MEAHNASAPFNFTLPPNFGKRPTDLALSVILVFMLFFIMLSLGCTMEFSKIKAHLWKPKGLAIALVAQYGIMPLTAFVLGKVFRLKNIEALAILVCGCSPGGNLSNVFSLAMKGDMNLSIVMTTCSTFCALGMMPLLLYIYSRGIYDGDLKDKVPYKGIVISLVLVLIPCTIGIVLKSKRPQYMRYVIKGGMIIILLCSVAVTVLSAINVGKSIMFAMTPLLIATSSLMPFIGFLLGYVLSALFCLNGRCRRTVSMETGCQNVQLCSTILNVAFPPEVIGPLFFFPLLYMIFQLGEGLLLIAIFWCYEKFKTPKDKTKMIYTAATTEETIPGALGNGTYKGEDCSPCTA

human NTCP [2] = biological target: T1, human NTCP; experiment: Screening fluorescent competitive Myrcludex B-FITC binding assay (96-well, 10 µM drug)
[3] = Prestwick library screen, 10 µM drug, B-score of taurocholate uptake
[4] = combined ranking from functional and binding assay B-scores
[5] = Prestwick library screen, 10 µM drug, B-score of Myrcludex B-FITC binding
[6] = combined ranking from functional and binding screening assays
[7] = screen, 10 µM drug, taurocholate uptake
[8] = screen, 10 µM drug, Myrcludex B-FITC binding
[9] = Prestwick library screen, taurocholate uptake, 10 µM drug
[10] = ranking score beside the functional and binding assay B-scores of the screen
[11] = Prestwick library screen, Myrcludex B-FITC binding, 10 µM drug

SMILES: CCN(CC)CCOC(=O)C1(c2ccc([N+](=O)[O-])cc2)CCCC1.Cl [Nitrocaramiphen hydrochloride]
- B-score functional assay (human NTCP [1]; [3]): 0.881
- Ranking score (human NTCP [1]; [4]): 904.838
- B-score binding assay (human NTCP [2]; [5]): 0.18

- B-score functional assay (human NTCP [1]; [3]): 0.271
- Ranking score (human NTCP [1]; [4]): 960.129
- B-score binding assay (human NTCP [2]; [5]): 1.375
SMILES: CNC(=C[N+](=O)[O-])NCCSCc1csc(CN(C)C)n1 [Nizatidine]

SMILES: COC(=O)Nc1nc2ccc(C(=O)c3cccs3)cc2[nH]1 [Nocodazole]
- Ranking score (human NTCP [1]; [6]): 428.035
- B-score functional assay (human NTCP [1]; [7]): -1.345
- B-score binding assay (human NTCP [2]; [8]): 0.497

- Ranking score (human NTCP [1]; [6]): 298.149
- B-score functional assay (human NTCP [1]; [7]): -2.71
- B-score binding assay (human NTCP [2]; [8]): 1.174
SMILES: CC(=O)O[C@]1(C(C)=O)CC[C@H]2[C@@H]3C=C(C)C4=CC(=O)CC[C@@H]4[C@H]3CC[C@@]21C [Nomegestrol acetate]

- Ranking score (human NTCP [1]; [6]): 394.208
- B-score functional assay (human NTCP [1]; [7]): 0.089
- B-score binding assay (human NTCP [2]; [8]): -1.176
SMILES: CN1Cc2c(N)cccc2C(c2ccccc2)C1 (stereo not drawn) [Nomifensine maleate]

- B-score functional assay (human NTCP [1]; [9]): 0.855
- Ranking score (human NTCP [1]; [10]): 807.009
- B-score binding assay (human NTCP [2]; [11]): -0.001
SMILES: CNCCC=C1c2ccccc2C=Cc2ccccc21 [Norcyclobenzaprine]

- B-score functional assay (human NTCP [1]; [9]): 0.092
- Ranking score (human NTCP [1]; [10]): 749.492
- B-score binding assay (human NTCP [2]; [11]): 0.121
SMILES: C#C[C@]1(O)CC[C@H]2[C@@H]3CCC4=C(CCC(=O)C4)[C@H]3CC[C@@]21C [Norethynodrel]

- B-score functional assay (human NTCP [1]; [9]): -0.135
- Ranking score (human NTCP [1]; [10]): 788.093
- B-score binding assay (human NTCP [2]; [11]): 2.084
SMILES: CCn1cc(C(=O)O)c(=O)c2cc(F)c(N3CCNCC3)cc21 [Norfloxacin]

SMILES: CNCCC=C1c2ccccc2CCc2ccccc21 [Nortriptyline hydrochloride]
- B-score functional assay (human NTCP [1]; [3]): 1.081
- Ranking score (human NTCP [1]; [4]): 1101.36
- B-score binding assay (human NTCP [2]; [5]): 1.407

- B-score functional assay (human NTCP [1]; [3]): 1.027
- Ranking score (human NTCP [1]; [4]): 942.881
- B-score binding assay (human NTCP [2]; [5]): 0.269
SMILES: CO[C@@H]1[C@@H](OC(N)=O)[C@@H](O)[C@H](Oc2ccc3c([O-])c(NC(=O)c4ccc(O)c(CC=C(C)C)c4)c(=O)oc3c2C)OC1(C)C.[Na+] [Novobiocin sodium salt]

- Ranking score (human NTCP [1]; [6]): 363.793
- B-score functional assay (human NTCP [1]; [7]): -0.121
- B-score binding assay (human NTCP [2]; [8]): -0.92
SMILES: CC(CCc1ccccc1)NC(C)C(O)c1ccc(O)cc1 (stereo not drawn) [Nylidrin]

SMILES: C[C@@H]1[C@H](O)[C@@H](C)/C=C/C=C/CC/C=C/C=C/C=C/C=C/C(O[C@H]2O[C@H](C)[C@@H](O)[C@H](N)[C@@H]2O)CC2O[C@](O)(CC(O)C(O)CCC(O)CC(O)CC(O)CC(=O)O[C@H]1C)CC(O)C2C(=O)O (stereo partly drawn) [Nystatine]
- B-score functional assay (human NTCP [1]; [9]): -0.141
- Ranking score (human NTCP [1]; [10]): 804.798
- B-score binding assay (human NTCP [2]; [11]): 3.8

SMILES: CC1COc2c(N3CCN(C)CC3)c(F)cc3c(=O)c(C(=O)O)cn1c23 (stereo not drawn) [Ofloxacin]
- B-score functional assay (human NTCP [1]): 1.32
- Ranking score (human NTCP [1]): 1023.33
- B-score binding assay (human NTCP [2]): 0.588

SMILES: Cc1cc2c(s1)Nc1ccccc1N=C2N1CCN(C)CC1 [Olanzapine]
- B-score functional assay (human NTCP [1]; [3]): 0.458
- Ranking score (human NTCP [1]; [4]): 1041.63
- B-score binding assay (human NTCP [2]; [5]): 2.253

- B-score functional assay (human NTCP [1]; [3]): 1.227
- Ranking score (human NTCP [1]; [4]): 1048.28
- B-score binding assay (human NTCP [2]; [5]): 0.808
SMILES: CN(C)CC/C=C1/c2ccccc2COc2ccc(CC(=O)O)cc21 [Olopatadine hydrochloride]

- Ranking score (human NTCP [1]; [6]): 423.789
- B-score functional assay (human NTCP [1]; [7]): -0.074
- B-score binding assay (human NTCP [2]; [8]): -0.678
SMILES: COc1ccc2[nH]c([S+]([O-])Cc3ncc(C)c(OC)c3C)nc2c1 (stereo not drawn) [Omeprazole]

- B-score functional assay (human NTCP [1]; [9]): 0.043
- Ranking score (human NTCP [1]; [10]): 666.933
- B-score binding assay (human NTCP [2]; [11]): 0
SMILES: Cc1nccn1CC1CCc2c(c3ccccc3n2C)C1=O.Cl (stereo not drawn) [Ondansetron Hydrochloride]

SMILES: Cc1onc(-c2ccccc2)c1C(=O)N[C@@H]1C(=O)N2[C@@H]1SC(C)(C)[C@@H]2C(=O)[O-].[Na+] [Oxacillin sodium]
- B-score functional assay (human NTCP [1]; [3]): 0.869
- Ranking score (human NTCP [1]; [4]): 869.572
- B-score binding assay (human NTCP [2]; [5]): 0.083
